One experiment relates to A549 cells. In words: Inhibition of KRas-mediated phosphorylation of ERK (Cisbio HTRF pERK), A549 cells. The class given is cell-based. The conditions noted are these: Homo sapiens, single point at 100 nM, 3 hrs compound incubation. (Time-resolved FRET reads energy transfer from a long-lived donor to a nearby acceptor.)
A further experiment relates to H460 cells. Put plainly: Inhibition of KRas-mediated phosphorylation of ERK (Cisbio HTRF pERK), H460 cells. It is filed as cell-based. The conditions noted are these: Homo sapiens, NCI-H460, single point at 100 nM, 3 hrs compound incubation.
A further experiment concerns the target KRas G12D (Homo sapiens, UniProt P01116, G12D). In words: biochemical. Particulars: Binding to KRas (IC50 nM) G12D, TR-FRET displacement, KRas G12D.
For another experiment, the system named is HCT116 cells. Put plainly: Inhibition of KRas-mediated phosphorylation of ERK (Cisbio HTRF pERK), HCT116 cells. The class given is cell-based. The conditions noted are these: Homo sapiens, HCT-116, single point at 100 nM, 3 hrs compound incubation.
In a further experiment the test system is H727 cells. In words: Inhibition of KRas-mediated phosphorylation of ERK (Cisbio HTRF pERK), H727 cells. The class given is cell-based. The conditions noted are these: Homo sapiens; for IC50: NCI-H727, 3 h, 3 hr compound incubation, Cisbio pERK HTRF; for inhibition at 0.1 µM: NCI-H727, single point at 100 nM, 3 hrs compound incubation.
The target of a further experiment is KRas G12V (Homo sapiens, UniProt P01116, G12V). In words: biochemical. The conditions noted are these: Binding to KRas (IC50 nM) G12V, TR-FRET displacement, KRas G12V.
In another experiment the test system is ASPC1 cells. Put plainly: Inhibition of KRas-mediated phosphorylation of ERK (Cisbio HTRF pERK), ASPC1 cells. It is filed as cell-based. The conditions noted are these: Homo sapiens, AsPC-1 cells; for IC50: ASPC1, 3 h, 3 hr compound incubation, Cisbio pERK HTRF; for inhibition at 0.1 µM: ASPC1, single point at 100 nM, 3 hrs compound incubation.
For another experiment, the system named is H358 cells. In words: Inhibition of KRas-mediated phosphorylation of ERK (Cisbio HTRF pERK), H358 cells. Particulars: Homo sapiens, NCI-H358, single point at 100 nM, 3 hrs compound incubation. The class given is cell-based.
The target of another experiment is KRas G12R (Homo sapiens, UniProt P01116, G12R). Put plainly: biochemical. Particulars: Binding to KRas (IC50 nM) G12R, TR-FRET displacement, KRas G12R.

One may read the inhibition as the change of the read-out against control, counted positive when it falls. As usually defined, the IC50 is the concentration that inhibits the measured activity by half.

KRas G12V, sequence (P01116 1-169 isoform P01116-2 G12V): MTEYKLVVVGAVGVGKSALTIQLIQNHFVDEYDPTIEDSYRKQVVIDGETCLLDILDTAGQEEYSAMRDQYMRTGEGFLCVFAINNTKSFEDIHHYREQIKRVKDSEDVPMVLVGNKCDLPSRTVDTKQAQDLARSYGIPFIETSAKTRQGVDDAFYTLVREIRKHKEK
KRas G12R, sequence (P01116 1-169 isoform P01116-2 G12R): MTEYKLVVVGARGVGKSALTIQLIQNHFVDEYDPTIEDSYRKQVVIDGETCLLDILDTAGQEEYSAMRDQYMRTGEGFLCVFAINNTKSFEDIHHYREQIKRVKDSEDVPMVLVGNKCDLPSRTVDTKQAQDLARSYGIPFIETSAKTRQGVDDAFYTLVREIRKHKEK
KRas G12D, sequence (P01116 1-169 isoform P01116-2 G12D): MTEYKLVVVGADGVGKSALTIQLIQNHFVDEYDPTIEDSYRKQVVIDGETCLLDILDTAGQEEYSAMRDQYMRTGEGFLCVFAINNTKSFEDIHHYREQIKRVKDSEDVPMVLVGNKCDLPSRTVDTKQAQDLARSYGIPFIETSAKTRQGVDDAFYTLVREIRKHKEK

As to `CCc1c(F)ccc2cc(O)cc(N3CCc4c(nc(OC[C@@]56CCCN5C[C@H](F)C6)nc4N4CCCn5nc(N(C)S(C)(=O)=O)cc5C4)C3)c12` [Example 334, N-(5-(7-(8-ethyl-7-fluoro-3-hydroxynaphthalen-1-yl)-2-(((2R,7aS)-2-fluorohexahydro-1H-pyrrolizin-7a-yl)methoxy)-5,6,7,8-tetrahydropyrido[3,4-d]pyrimidin-4-yl)-5,6,7,8-tetrahydro-4H-pyrazolo[1,5-a][1,4]diazepin-2-yl)-N-methylmethanesulfonamide], the inhibition at 0.1 µM in the experiment with A549 cells is 12%; in the experiment on H460 cells, -1%; with HCT116 cells it was 12%; in the experiment with H358 cells, 2%. Also, the 50% inhibitory concentration (IC50) at KRas G12D stood at 12 nM; with H727 cells, 1690 nM; on KRas G12V it was 50 nM; in the experiment with ASPC1 cells, 999 nM; on KRas G12R, 43 nM.

On to `CCc1c(F)ccc2cc(O)cc(N3CCc4c(nc(OC[C@@]56CCCN5C[C@H](F)C6)nc4N4CCCn5nc(N(C)C(=O)C(C)C)cc5C4)C3)c12` [Example 335, N-(5-(7-(8-ethyl-7-fluoro-3-hydroxynaphthalen-1-yl)-2-(((2R,7aS)-2-fluorohexahydro-1H-pyrrolizin-7a-yl)methoxy)-5,6,7,8-tetrahydropyrido[3,4-d]pyrimidin-4-yl)-5,6,7,8-tetrahydro-4H-pyrazolo[1,5-a][1,4]diazepin-2-yl)-N-methylisobutyramide], for which the inhibition at 0.1 µM amounted to 13% in the experiment with A549 cells, 10% in the experiment with H460 cells, 15% in the experiment with HCT116 cells and 0% with H358 cells. For the same molecule, the IC50 at KRas G12D amounted to 29 nM; in the experiment on H727 cells it was 656 nM; on KRas G12V it was 44 nM; with ASPC1 cells, 779 nM; at KRas G12R, 32 nM.

As for `CCc1c(F)ccc2cc(O)cc(N3CCc4c(nc(OC[C@@]56CCCN5C[C@H](F)C6)nc4N4CCCn5nc(CN(C)S(=O)(=O)N(C)C)cc5C4)C3)c12` [Example 343, 7-(8-ethyl-7-fluoro-3-hydroxy-1-naphthyl)-2-(((2R,7aS)-2-fluorotetrahydro-1H-pyrrolizin-7a(5H)-yl)methoxy)-4-(2-((dimethylsulfamoyl)methylamino)methyl-7,8-dihydro-4H-pyrazolo[1,5-a][1,4]diazepin-5(6H)-yl)-6,8-dihydro-5H-pyrido[3,4-d]pyrimidine], the inhibition at 0.1 µM in the experiment with A549 cells was 4%; in the experiment on H460 cells it was 7%; in the experiment with HCT116 cells, -2%; in the experiment with H358 cells, -13%. Besides, the IC50 at KRas G12D worked out at 8 nM; with H727 cells it was 335 nM; at KRas G12V it was 21 nM; in the experiment with ASPC1 cells, 445 nM; on KRas G12R, 18 nM.

In the case of `CCc1c(F)ccc2cc(O)cc(N3CCc4c(nc(OC[C@@]56CCCN5C[C@H](F)C6)nc4N4CCCCC(CC(=O)NC)C4)C3)c12` (stereo partly drawn) [Example 346, 2-(1-(7-(8-ethyl-7-fluoro-3-hydroxynaphthalen-1-yl)-2-(((2R,7aS)-2-fluorohexahydro-1H-pyrrolizin-7a-yl)methoxy)-5,6,7,8-tetrahydropyrido[3,4-d]pyrimidin-4-yl)azepan-3-yl)-N-methylacetamide], the inhibition at 0.1 µM in the experiment with A549 cells came to 19%; in the experiment with H460 cells, 9%; in the experiment with HCT116 cells it was 7%; in the experiment on H358 cells, 11%. In addition, the IC50 at KRas G12D is 6 nM; in the experiment with H727 cells, 822 nM; at KRas G12V, 4 nM; in the experiment on ASPC1 cells it was 1220 nM; at KRas G12R it was below 2 nM.

Regarding `CCc1c(F)ccc2cc(O)cc(N3CCc4c(nc(OC[C@@]56CCCN5C[C@H](F)C6)nc4N4CCCCC(CC(N)=O)C4)C3)c12` (stereo partly drawn) [Example 347, 2-(1-(7-(8-ethyl-7-fluoro-3-hydroxynaphthalen-1-yl)-2-(((2R,7aS)-2-fluorohexahydro-1H-pyrrolizin-7a-yl)methoxy)-5,6,7,8-tetrahydropyrido[3,4-d]pyrimidin-4-yl)azepan-3-yl)acetamide], the inhibition at 0.1 µM in the experiment on A549 cells is 28%; in the experiment with H460 cells it was 21%; in the experiment with HCT116 cells, -14%; in the experiment with H358 cells it was 5%. Further, the IC50 on KRas G12D turned out to be 7 nM; with H727 cells, 541 nM; at KRas G12V it was 2 nM; in the experiment with ASPC1 cells, 690 nM; on KRas G12R it was 2 nM.

Turning to `CCc1c(F)ccc2cc(O)cc(N3CCc4c(nc(OC[C@@]56CCCN5C[C@H](F)C6)nc4N4CCCCC(P(C)(C)=O)C4)C3)c12` (stereo partly drawn) [Example 351, (1-(7-(8-ethyl-7-fluoro-3-hydroxynaphthalen-1-yl)-2-(((2R,7aS)-2-fluorotetrahydro-1H-pyrrolizin-7a(5H)-yl)methoxy)-5,6,7,8-tetrahydropyrido[3,4-d]pyrimidin-4-yl)azepan-3-yl)dimethylphosphine oxide], the inhibition at 0.1 µM is 11% in the experiment on A549 cells, 1% in the experiment on H460 cells, 5% in the experiment with HCT116 cells and -7% in the experiment on H358 cells. Also, the IC50 on KRas G12D turned out to be 12 nM; in the experiment on H727 cells, 1060 nM; at KRas G12V, 6 nM; in the experiment on ASPC1 cells, 3660 nM; at KRas G12R it was 4 nM.

`CCc1c(F)ccc2cc(O)cc(N3CCc4c(nc(N5CC(C)(N)C5)nc4N4CCCn5nc(C(=O)N(C)C)cc5C4)C3)c12` [Example 427, 5-(2-(3-amino-3-methylazetidin-1-yl)-7-(8-ethyl-7-fluoro-3-hydroxynaphthalen-1-yl)-5,6,7,8-tetrahydropyrido[3,4-d]pyrimidin-4-yl)-N,N-dimethyl-5,6,7,8-tetrahydro-4H-pyrazolo[1,5-a][1,4]diazepine-2-carboxamide]: the inhibition at 0.1 µM in the experiment with A549 cells is 0%; with H460 cells it was 25%; in the experiment on HCT116 cells, 4%; in the experiment on H727 cells, -14%; with ASPC1 cells, -23%; with H358 cells, -16%. Also, the IC50 at KRas G12D was determined as 182 nM; on KRas G12V, 253 nM; at KRas G12R, 537 nM.

For `CCc1c(F)ccc2cc(O)cc(N3CCc4c(nc(OCC5(CN(C)C)CC5)nc4N4CCCn5nc(C(=O)N6CCOCC6)cc5C4)C3)c12` [Example 429, (5-(2-((1-((dimethylamino)methyl)cyclopropyl)methoxy)-7-(8-ethyl-7-fluoro-3-hydroxynaphthalen-1-yl)-5,6,7,8-tetrahydropyrido[3,4-d]pyrimidin-4-yl)-5,6,7,8-tetrahydro-4H-pyrazolo[1,5-a][1,4]diazepin-2-yl)(morpholino)methanone], the inhibition at 0.1 µM was 23% with A549 cells, -3% in the experiment on H460 cells, -4% with HCT116 cells and 19% in the experiment on H358 cells. In addition, the IC50 is below 2 nM on KRas G12D; 95 nM with H727 cells; below 2 nM on KRas G12V; 113 nM with ASPC1 cells; 3 nM at KRas G12R.

In the case of `CCc1c(F)ccc2cc(O)cc(N3CCc4c(nc(N5CC(N(C)C)C5)nc4N4CCCC5(C4)NC(=O)NC5=O)C3)c12` (centres unmarked) [Example 433, 7-(2-(3-(dimethylamino)azetidin-1-yl)-7-(8-ethyl-7-fluoro-3-hydroxynaphthalen-1-yl)-5,6,7,8-tetrahydropyrido[3,4-d]pyrimidin-4-yl)-1,3,7-triazaspiro[4.5]decane-2,4-dione], the inhibition at 0.1 µM in the experiment on A549 cells was 9%; in the experiment with H460 cells, 6%; with HCT116 cells, 1%; in the experiment with H727 cells, 0%; in the experiment on ASPC1 cells it was -5%; in the experiment with H358 cells, -7%. Moreover, the IC50 on KRas G12D was found to be 26 nM; with H727 cells, 1160 nM; on KRas G12V, 10 nM; in the experiment on ASPC1 cells it was 2610 nM; at KRas G12R, 11 nM.
